Experimental findings from patent US20090258888A1, “Pyrimidine Derivatives” (Bayer Pharmaceuticals Corporation, priority 2005, published 2009) are described below.

Counter-ions that a name gives are not always drawn. Like-named read-outs stand apart in the source and are kept apart here. Some results are limits rather than exact numbers.

The subject of the assay is HCT116 cells. The assay can be described thus: HCT116 cytotoxic activity assay. The class given is cell-based. The following applies: Homo sapiens, HCT-116, 72 h with compound, Alamar Blue readout. A general note: The colour change of resazurin is a common sign of viable cells or microbes.
Setting [1] is: read-out: IC50 in the HCT116 cytotoxic activity assay.
[2] abbreviates: read-out: IC50 in the HCT116 cytotoxic activity assay (upper bound of the class >500 nM).

Method: Human tumor cells, e.g., HCT116 cells, are seeded in a 96-well plate at 3.0×10^3 cells/well and grown in 100 μl of RPMI complete media (Invitrogen Corporation, Grand Island, N.Y.) containing 10% fetal bovine serum (Hyclone, Logan, Utah) and 10 mM HEPES and at 37° C. for 16 h in an incubator with 5% CO2. To each well, 50 μl of additional growth media containing 20 μM to 60 nM concentrations of compound with 0.2% DMSO is added. Cells are grown for another 72 h at 37° C. 20 μl of Alamar Blue (Trek Diagnostic Systems, Inc., Cleveland, Ohio) reagent is added to each well and incubated for 4 h at 37° C. Plates are read in a SpectraMax Gemini (Molecular Devices, CA) with 544 nm excitation and 590 nm emission wavelength. IC50 values are determined by linear regression analysis of log drug concentration versus percent inhibition.

By IC50 is commonly meant the point on the concentration scale where inhibition reaches its midpoint. In the case of `Nc1nc(CCc2ccc(F)cc2)cc(Nc2ccc(Oc3ccnc(C(F)(F)F)c3)cc2)n1` [Example 29, 6-[2-(4-fluorophenyl)ethyl]-N^4-(4-{[2-(trifluoromethyl)pyridin-4-yl]oxy}phenyl)pyrimidine-2,4-diamine], the IC50 under setting [1] was ≤ 500 nM.
The same measure, in the same setting: for `Cc1cc(Oc2ccc(Nc3cc(/C=C/c4ccccc4)nc(N)n3)cc2)ccn1` [Example 41, N^4-{4-[(2-methylpyridin-4-yl)oxy]phenyl}-6-[(E)-2-phenylvinyl]-pyrimidine-2,4-diamine] the value was ≤ 500 nM; for `Nc1nc(/C=C/c2ccc(F)cc2)cc(Nc2ccc(Oc3ccnc(C(F)(F)F)c3)cc2)n1` [Example 5, 6-[(E)-2-(4-fluorophenyl)vinyl]-N^4-(4-{[2-(trifluoromethyl)pyridin-4-yl]oxy}phenyl)pyrimidine-2,4-diamine], ≤ 500 nM.
For `Nc1nc(C#Cc2ccc(F)cc2)cc(Nc2ccc(Oc3ccnc(C(F)(F)F)c3)cc2)n1` [Example 22, 6-[(4-fluorophenyl)ethynyl]-N^4-(4-{[2-(trifluoromethyl)pyridin-4-yl]oxy}phenyl)pyrimidine-2,4-diamine], the half-inhibitory concentration (IC50) under setting [1] was ≤ 500 nM.
Regarding `Nc1nc(CCc2cccc(O)c2)cc(Nc2ccc(Oc3ccnc(C(F)(F)F)c3)cc2)n1` [Example 35, 3-(2-{2-amino-6-[(4-{[2-(trifluoromethyl)pyridin-4-yl]oxy}phenyl)-amino]pyrimidin-4-yl}ethyl)phenol], the IC50 reads like this: under setting [1], > 500 nM; under setting [2], ≤ 10000 nM.
In the case of `N#Cc1cc(Oc2ccc(Nc3cc(/C=C/c4ccc(F)cc4)nc(N)n3)cc2)ccn1` [Example 3, 4-[4-({2-amino-6-[(E)-2-(4-fluorophenyl)vinyl]pyrimidin-4-yl}amino)phenoxy]pyridine-2-carbonitrile], the IC50 under setting [1] was ≤ 500 nM.
On the same count and under the same terms, for `Nc1nc(CCCCO)cc(Nc2ccc(Oc3ccnc(C(F)(F)F)c3)cc2)n1` [Example 15, 4-{2-amino-6-[(4-{[2-(trifluoromethyl)pyridin-4-yl]oxy}phenyl)amino]pyrimidin-4-yl}butan-1-ol] the value was ≤ 500 nM.
The same measure, in the same setting: for `Nc1nc(CCCO)cc(Nc2ccc(Oc3ccnc(C(F)(F)F)c3)cc2)n1` [Example 16, 4-{2-amino-6-[(4-{[2-(trifluoromethyl)pyridin-4-yl]oxy}phenyl)amino]pyrimidin-4-yl}propan-1-ol] the value was ≤ 500 nM; for `Nc1ccc(CCc2cc(Nc3ccc(Oc4ccnc(C(F)(F)F)c4)cc3)nc(N)n2)cc1` [Example 40, 6-[2-(4-aminophenyl)ethyl]-N^4-(4-{[2-(trifluoromethyl)pyridin-4-yl]oxy}phenyl)pyrimidine-2,4-diamine trifluoroacetate], ≤ 500 nM; for `COc1cccc(CCc2cc(Nc3ccc(Oc4ccnc(C(F)(F)F)c4)cc3)nc(N)n2)c1` [Example 31, 6-[2-(3-methoxyphenyl)ethyl]-N4-(4-{[2-(trifluoromethyl)pyridin-4-yl]oxy}phenyl)pyrimidine-2,4-diamine], ≤ 500 nM.
In the case of `Nc1ccc(/C=C/c2cc(Nc3ccc(Oc4ccnc(C(F)(F)F)c4)cc3)nc(N)n2)cc1` [Example 39A, 6-[(E)-2-(4-aminophenyl)vinyl]-N^4-(4-{[2-(trifluoromethyl)pyridin-4-yl]oxy}phenyl)pyrimidine-2,4-diamine trifluoroacetate], the IC50 runs as follows: under setting [1], > 500 nM; under setting [2], ≤ 10000 nM.
For `Nc1nc(/C=C/CCO)cc(Nc2ccc(Oc3ccnc(C(F)(F)F)c3)cc2)n1` [Example 8, (3E)-4-[2-amino-6-[(4-{[2-(trifluoromethyl)pyridin-4-yl]oxy}phenyl)amino]pyrimidin-4-yl]but-3-en-1-ol], under setting [1], the IC50 was ≤ 500 nM.
As for `C=C(OCC)c1cc(Nc2ccc(Oc3ccnc(C(F)(F)F)c3)cc2)nc(N)n1` [Example 1, 6-(1-ethoxyvinyl)-N^4-(4-{[2-(trifluoromethyl)pyridin-4-yl]oxy}phenyl)pyrimidine-2,4-diamine], the half-inhibitory concentration (IC50) is > 500 nM under setting [1] and ≤ 10000 nM under setting [2].
Taken in the same sequence, the figures for `Nc1ccc(/C=C\c2cc(Nc3ccc(Oc4ccnc(C(F)(F)F)c4)cc3)nc(N)n2)cc1` [Example 39B, 6-[(Z)-2-(4-aminophenyl)vinyl]-N^4-(4-{[2-(trifluoromethyl)pyridin-4-yl]oxy}phenyl)pyrimidine-2,4-diamine trifluoroacetate] were > 500 nM and ≤ 10000 nM.
Take `CC(O)c1cc(Nc2ccc(Oc3ccnc(C(F)(F)F)c3)cc2)nc(N)n1` (stereo not drawn) [Example 2, 1-{2-amino-6-[(4-{[2-(trifluoromethyl)pyridin-4-yl]ox-}phenyl)amino]pyrimidin-4-yl}ethanol]: the half-inhibitory concentration (IC50) is, setting by setting: under setting [1], > 500 nM; under setting [2], ≤ 10000 nM.
Taken in the same sequence, the figures for `NCCCc1cc(Nc2ccc(Oc3ccnc(C(F)(F)F)c3)cc2)nc(N)n1` [Example 14, 6-(3-aminopropyl)-N^4-(4-{[2-(trifluoromethyl)pyridin-4-yl]oxy}phenyl)pyrimidine-2,4-diamine hydrochloride] were > 500 nM and ≤ 10000 nM.
Taken in the same sequence, the figures for `Nc1nc(CCC(O)CO)cc(Nc2ccc(Oc3ccnc(C(F)(F)F)c3)cc2)n1` (stereo not drawn) [Example 17, 4-{2-amino-6-[(4-{[2-(trifluoromethyl)pyridin-4-yl]oxy}phenyl)amino]pyrimidin-4-yl}butane-1,2-diol] were > 500 nM and ≤ 10000 nM.
